Measurements: patent US20240228474A1, “ANTIBACTERIAL COMPOUND” (DISCUVA LIMITED, priority 2021, published 2024)

Assay: Volume of distribution (Vss) from mouse plasma profiles
Assay type: in vivo
Details: mice, 5 mg/kg IV bolus, 2 compartment model
Protocol: The volume of distribution (Vss) of compound (I) and comparative compounds (II) and (III) was determined from analysis of plasma concentration time profiles obtained from rodent species (mice), following 5 mg/kg IV bolus administration respectively. The volume of distribution was obtained by analysing the rodent plasma profiles for compound (I) and comparative compounds (II) and (III) using a 2 compartment IV bolus model in PK Solver (Excel). The volume of distribution data for compound (I) and comparative compound (II) was collected in separate experiments carried out on different days, and compared in Table 6.

Vd: 19.7 L/kg
Compound: Cc1cnccc1-c1[nH]c(N)nc1-c1ccc2c(c1)N(C(=O)C(C)(C)N)CCO2 [Compound (I), 2-amino-1-(6-(2-amino-5-(3-methylpyridin-4-yl)-1H-imidazol-4-yl)-2,3-dihydro-4H-benzo[b][1,4]oxazin-4-yl)-2-methylpropan-1-one]
